Experimental data published in patent US20240240189A1, “CANCER TREATMENT BY TARGETING PROTEINS OR INTERACTIONS OF EPHRINB-RGS3-KIF20A-SEPT7 AXIS” (CITY OF HOPE, priority 2021, published 2024).
“Also recorded” adds a separate entry of the source.

Tests used:
[1] = test system: human KIF20A transcript; experiment: shRNA screening by dual luciferase reporter assay; type: cell-based; conditions: transfected HEK293 cells, shRNA in pNUT vector, cDNA target in psi-CHECK, 48 hours
Description: FIGS. 10a-10c show generation of human KIF20A shRNAs and stable Daoy cell lines. […] Candidate shRNAs in pNUT vector were first screened with a cDNA target cloned in psi-CHECK vector in transfected HEK293 cells, using a dual luciferase reporter assay and their cDNA target in psi-CHECK Vector (Promega). Six candidate shKIF20As were tested with this assay. […] Data are mean±S.D. **P<0.01, ***P<0.001 (two-way ANOVA).
DNA Constructs, Lentivirus Production: Lentiviral transfer plasmids used in this study include: Hiv7CMV-Cre-myc-2A-GFP (Addgene #117148), Hiv7CMV-GFP, Hiv7CMV-GFP-IRES-Luciferase, as well as Tet-on inducible shRNA plasmids Tet-pLKO-hushKIF20A726 or Tet-pLKO-hushKIF20A181-Puro (shRNA sequences were cloned into pLKO-Tet-On plasmid, Addgene #21915 at Agel/EcoRI sites). […]
shRNA design and screening: Potential shRNA sequences were selected using web-based design tool (rnaidesigner.thermofisher.com/rnaiexpress/design.do). shRNAs were expressed under the control of a mouse U6 promoter in pNUTs vector which additionally contains a ubiquitin promoter-EGFP expression cassette. Candidate shRNAs in pNUTs and cDNA target in psi-CHECK were co-transfected into HEK293 cells in triplicates; 48 hours later, the firefly and Renilla Luciferase values were determined with Promega's Dual-Luciferase® Reporter Assay System (Promega, E1910). […]

[2] = test system: KIF20A; experiment: Western blot of KIF20A in Daoy clones with Tet-on shKIF20A726; type: cell-based, human; conditions: three Daoy clones, doxycycline induction of Tet-on shKIF20A726
Description: Western Blot: Daoy cell clones stably integrated with Tet-on shKIF20A726 were cultured with or without Doxycycline induction for 3 days. These Daoy cells were washed with PBS, lysed with 2×SDS loading buffer and boiled for 5 minutes. Denatured proteins were resolved by SDS-PAGE and transferred to a PVDF membrane for Western blot detection by KIF20A (L13) antibody (1:500) and HRP-conjugated Donkey anti-Goat second antibody (1:2500) with chemiluminescent substrate (ThermoFisher Scientific, Cat: 34095).
Generation of Daoy cell lines with stably integrated Tet-on inducible shRNA expression system: Daoy cells were infected with lentivirus of Tet-on inducible human KIF20A shRNA-726 and GFP-Luciferase prepared from Tet-pLKO-hushKIF20A726 plasmid and Hiv7CMVGFP-IRES-Luciferase plasmid, respectively. The transduced Daoy cells were selected for stable single clones with Puromycin (1 μg/ml, Sigma-Aldrich) and GFP fluorescence signal in DMEM (Invitrogen) with 10% fetal bovine serum. Single clones were picked up by glass cloning cylinders (Sigma-Aldrich) in 10 cm plate. Three clones were obtained and tested for growth ability and doxycycline (0.5 μg/ml) inducibility using growth curve assay, western blots and luciferase reporter assay system. Clone #2 was selected for further use.

[3] = test system: KIF20A; experiment: KIF20A knockdown in GISC017 cells by lentiviral shRNA; type: cell-based, human; conditions: constitutive lentiviral expression, vs scrambled shRNA
From the text: (§1) To further investigate the relevance of KIF20A in human brain tumors, inhibition of KIF20A in patient-derived GBM-initiating/stem cells (GISCs) was examined. As the ERKS axis functions in different types of brain tumor-initiating/stem cells, data obtained from study of GISCs would be applicable to other brain tumor cell types. Multiple lines of patient-derived GISCs were obtained from Dr. Christine Brown. These low passaged GISCs could be expanded in cultures and could engraft in NSG mice^43, 44. FIG. 11 summarizes the results of testing KIF20A in one GISC line (GISC017) by constitutive expression of a control scrambled shRNA or shKIF20A726 (shRNA targeting hKIF20A) in pNUT vector-based lentiviral expression system. […] In the above cell cycle exit analysis, co-staining of differentiation markers (e.g. βlll-tubulin, DCX, or NeuN) was performed, however, these markers were detected in EdU^+Ki67^− (cells having left the cell cycle) but also in some EdU^+Ki67^+ (cells staying in the cell cycle) cells, which might reflect a technical artefact observed with progenitor/stem cells in culture. […]

[4] = test system: GISC017 cells; experiment: Cell cycle exit analysis (EdU/Ki67) in GISC017 cells; type: cell-based, human; conditions: shRNA expression vs scrambled shRNA
From the text: as §1

[5] = test system: GISC017 cells; experiment: Cell growth of GISC017 cells; type: cell-based, human; conditions: vs scrambled shRNA
From the text: as §1

[6] = test system: GISC017 cells; experiment: Flow cytometry-based cell cycle analysis (4N DNA content) of GISC017 cells; design: species or system human; conditions: vs scrambled shRNA
From the text: as §1

[7] = test system: GISC017 cells; experiment: GISC017 xenograft in brains of NSG mice; type: in vivo; conditions: GISC017 clones with Tet-inducible shKIF20A726 in NSG mouse brain, doxycycline treatment
Description: FIG. 12a: NSG mice were injected with GISC017 cells stably integrated with Tet-inducible shRNA and luciferase. Treatment with doxycycline started at 10 days after cell implantation (indicated by the red line). FIG. 12b: Survival data of the mice were analyzed by Kaplan-Meier plot.
GISC017 cell clones stably integrated with a Tet-inducible shKIF20A726 and luciferase expression cassette were established.

Question: How did the “inhibition of expression of the human KIF20A transcript (luciferase assay)” value [1] turn out when “5′-GAGGAGTGTCTACATCGAA-TTCAAGAGA-TTCGATGTAGACACTCCTC-3′ (GAGGAGTGTCTACATCGAATTCAAGAGATTCGATGTAGACACTCCTC; hairpin, further chemistry not given here) [shKIF20A726, shRNA targeting human KIF20A transcript]” was run?
Answer: significantly inhibit expression of the human KIF20A transcript

Question: What about the “KIF20A expression (Western blot)” value [2] of the same substance?
Answer: significant knockdown of KIF20A expression in all three cell clones; also recorded: reduction of KIF20A expression

Question: And the KIF20A level [3]?
Answer: strongly knocked down KIF20A level; also recorded: significant knockdown of KIF20A expression

Question: What about the “cell cycle exit (EdU+Ki67− cells)” value [4] of the same substance?
Answer: more cells exiting the cell cycle; also recorded: increase of GFP+EdU+Ki67− cells

Question: And the cell growth rate [5]?
Answer: slower cell growth rate; also recorded: inhibited cell growth

Question: And the “4N DNA contents / cytokinesis” value [6]?
Answer: comparable; also recorded: did not cause obvious change in cytokinesis

Question: And the animal survival [7]?
Answer: prolong animal survival

Question: What about the tumor xenograft growth [7] of the same substance?
Answer: suppress tumor xenograft growth
